Assay results from PubChem BioAssay AID463074 (Broad Institute, 2010).
Active and inactive are the calls of the source.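 Rule for the calls: active = AC50 no more than tenfold above the top dose tested, or full inhibition at every dose with a flat fit (cut at about 19 µM in these data); inconclusive = flat curve fit with inhibition between 30% and 70%, or poor fit; inactive = AC50 more than tenfold above the top dose tested.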

Tested on: HMLE_sh_eGFP viability, CellTiter-Glo luminescence, 72 h
Experiment: cytotoxicity in HMLE control line with eGFP shRNA, dose response, counter-screen for HMLE_sh_ECad selective toxicity project, cell-based, HMLE_sh_eGFP, luminescence (AID 463074);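 note: counterscreen control line to flag general toxicity for the HMLE_sh_ECad screen; potency for loss of viability as luminescence drops below DMSO wells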

Cc1ccc(C(=O)CSc2nc(-c3ccccc3)ccc2C#N)cc1
AC50: 2.47 µM

C/C(=N\NC(=O)c1cc(C)nc2ccccc12)c1ccccn1
AC50: 13.1 µM

Cc1ccc(NS(=O)(=O)c2cc([N+](=O)[O-])ccc2NNC(=S)Nc2cc(C)ccc2C)c(C)c1
AC50: 2.6 µM

CCN1CCN(c2cc(C)c3cc(NC(=S)N4CCN(c5ccc(F)cc5)CC4)ccc3n2)CC1
AC50: 4.67 µM

COc1ccc(NC(=O)c2ccc(COc3ccccc3Br)o2)cc1OC
AC50: 0.756 µM

COc1cc(SC#N)ccc1N=Cc1c(C)[nH]n(-c2ccc(C)c(C)c2)c1=O
AC50: 4.52 µM

O=C(Cc1ccc(Cl)cc1)Nc1ccc2c(c1)C(=O)NC2=O
AC50: > 19.5 µM (inactive)

CN(C)c1ccc(/C=N/NC(=O)C(=O)/C=C2\NC3(CCCC3)Cc3ccccc32)cc1
AC50: 6.5 µM

Nc1nc(Nc2ccccc2)nc(NC2CCCCC2)c1[N+](=O)[O-]
AC50: 6.81 µM

O=c1cc(N2CCCCC2)c(-c2ccccc2)nn1Cc1ccccc1
AC50: 12 µM

CN1CCN(c2ccccc2NC(=O)c2ccc(-c3ccc(Cl)c(Cl)c3)o2)CC1
AC50: 6.68 µM

O=S(=O)([N-]c1nc2ccccc2nc1-[n+]1ccc(Cc2ccccc2)cc1)c1ccc(Br)s1
AC50: 6.16 µM

Cc1ccc(-c2cc(-c3ccccc3C)[nH]n2)c(O)c1
AC50: 8.64 µM

CC(=O)c1ccc(-c2ccc([C@H]3[C@@H]4C=CCC[C@@]4(C)C(=O)N3Cc3ccccc3)c(F)c2)cc1
AC50: 4.17 µM

CCCCCc1cc(=O)oc2c(C(CCN3CCCC(C)C3)c3ccc(N(C)C)cc3)c(OC)cc(OC)c12 (configuration not stated)
AC50: 6.69 µM

c1ccc(N(c2ccccc2)c2nc(N3CCCC3)nc(-n3ccnc3)n2)cc1
AC50: 6.28 µM

COc1ccccc1/C=C/C=N/n1c(-c2n[nH]c3c2CCC3)n[nH]c1=S
AC50: 19.7 µM

O=C(N/N=C/c1cc(Br)ccc1O)C(=O)Nc1ccccc1OC(F)(F)C(F)F
AC50: 3.6 µM

Cc1ccc(-c2nnc(N3CCC(C)CC3)c3ccccc23)cc1C
AC50: 4.3 µM

COc1cccc(/C=C/c2nc(C#N)c(NCC(C)C)o2)c1
AC50: 5.06 µM

Cc1ccc(NC(=O)c2nc(S(=O)(=O)Cc3ccccc3C)ncc2Cl)cc1C
AC50: 7.64 µM

O=C(c1ccco1)c1nnn(Cc2ccccc2)c1-c1ccccc1
AC50: 6.47 µM

CC1=CC(C)[C@H](/C=N/n2c(=O)[nH]c3c([nH]c4ccc(Br)cc43)c2=O)C(C)C1 (some centres not stated)
AC50: 1.46 µM

S=c1nc[nH]c2nc[nH]c12
AC50: 1.52 µM

CCCOC(=O)c1ccc(Oc2c(-c3ccc(OCC)cc3O)n[nH]c2C)cc1
AC50: 4.06 µM

COc1cc(/C=C(\C#N)c2ccccn2)ccc1OCC(=O)Nc1ccc(Br)cc1
AC50: 2.7 µM

COc1ccc2sc(-c3ccc(N(C)C)cc3)c(-c3ccc4cc[nH]c4c3)c2c1
AC50: 16.5 µM

Cc1ccc(NC2=C(Cl)C(=O)c3ccccc3C2=O)cc1
AC50: 1.95 µM

COc1ccc(/C=C/C(=O)c2ccc(NS(=O)(=O)c3ccc(C)cc3)cc2)cc1O
AC50: 3.56 µM

Cc1ccc(Oc2nc(CN3CCOCC3)nc3sc4c(c23)CCC(C)C4)cc1C (configuration not stated)
AC50: 6.32 µM

CCOC(=O)c1cc(-c2cccs2)nc2c1c(C)nn2-c1ccccn1
AC50: 11.8 µM

COc1ccc(OC)c(NC(=O)c2nnn(Cc3ccccc3C)c2N)c1
AC50: 3.61 µM

C[C@H]1CCC/C=C/[C@@H]2C[C@H](O)C[C@H]2[C@H](O)/C=C/C(=O)O1
AC50: < 0.16 µM

C=C(C)[C@@H]1CC[C@]2(C(=O)O)CC[C@]3(C)C(CCC4[C@@]5(C)CC[C@H](O)C(C)(C)C5CC[C@]43C)C12 (some centres not stated)
AC50: 5.71 µM

N#CC1=C(SCC(=O)c2ccc(Cl)cc2)NC2=C(C(=O)CCC2)C1c1ccco1 (configuration not stated)
AC50: 3.57 µM

O=C(Nc1ccc(OCC(F)(F)C(F)F)c(C(F)(F)F)c1)c1ccc(Cl)cc1
AC50: 3.19 µM

COc1ccc(Nc2nnc(-c3ccccc3)c3ccccc23)cc1C(=O)N1CCCCC1
AC50: > 19.5 µM (inactive)

O=C(/C=C/Sc1ccccc1)c1ccc(Cl)cc1
AC50: 4.56 µM

Cc1cccc(C)c1NS(=O)(=O)c1ccc(NC(=O)c2ccc(Cl)c([N+](=O)[O-])c2)cc1
AC50: 3.66 µM

OC(CNCC(c1ccc(Cl)cc1Cl)c1c[nH]c2ccccc12)c1ccccc1 (configuration not stated)
AC50: 2.88 µM

CCNC(=O)c1c(NC(=O)c2cc(-c3cc(C)ccc3O)n[nH]2)sc2c1CCCC2
AC50: 4.99 µM

COc1ccc(-c2cn(CCc3c[nH]c4ccccc34)nn2)cc1
AC50: 2.69 µM

CCCC(=O)Nc1nc2ccc(NC(=O)c3c(F)c(F)c(OC)c(F)c3F)cc2s1
AC50: 1.56 µM

COc1ccc(-c2nn(-c3ccccc3)cc2/C=N/N2C(=O)CSC2=S)cc1
AC50: 3.97 µM

Fc1ccc(CSc2nc3ccccc3[nH]2)c2ccccc12
AC50: 5.51 µM

Oc1ccc(Br)cc1-c1cc(-c2ccccc2)n[nH]1
AC50: 6.31 µM

CC(=O)Oc1ccc2ccccc2c1C(NC(=O)Cc1ccccc1)c1ccc(Cl)cc1 (configuration not stated)
AC50: 6.3 µM

CC(C)Oc1ccc(CNC(=O)CC(c2ccccc2)c2cc(Cl)ccc2O)cc1 (configuration not stated)
AC50: 5.58 µM

COc1cc2c(cc1NC(=O)Nc1ccc(C)cc1)oc1ccccc12
AC50: 11.3 µM

O=C1C2C3C=CC(C4CC34)C2C(=O)N1/N=C/c1ccc(-c2ccc(F)cc2[N+](=O)[O-])o1 (configuration not stated)
AC50: 1.21 µM

CCOc1cc(/C=C\c2[nH]c(=O)[nH]c(=O)c2[N+](=O)[O-])ccc1OC(C)CC (configuration not stated)
AC50: 8.32 µM

Cc1csc(N/N=C/c2ccccn2)n1
AC50: 11 µM

COc1ccc(NS(=O)(=O)c2ccc(O)c(NC(=O)c3cc4c(C)nn(-c5ccc(F)cc5)c4s3)c2)cc1
AC50: 2.49 µM

Fc1ccc(C(c2ccc(F)cc2)N2CCN(C/C=C/c3ccccc3)CC2)cc1
AC50: 7.18 µM

COc1ccc(Sc2ccc(-c3nc4cnccn4c3NC3CCCCC3)cc2OC)cc1
AC50: 3.57 µM

Cc1ccc2nc(N(CCCN(C)C)C(=O)c3cc(-c4cccs4)nc4ccccc34)sc2c1
AC50: 6.4 µM

CNC(CC(=O)c1ccc([N+](=O)[O-])cc1)C(Cl)(Cl)Cl (configuration not stated)
AC50: 3.96 µM

COc1ccc(NC(=O)c2cccc(-c3ccc(O)cc3)c2)cn1
AC50: 7 µM

COc1ccc(-c2sc3ccc(OC)cc3c2C#CCCO)cc1
AC50: 7.27 µM

Cc1ccc(OC/C(O)=C(\C#N)c2nc3ccccc3s2)cc1
AC50: 6.81 µM

CC(=O)c1ccc(-c2cc([C@H]3[C@H]4C=CC[C@@H](C)[C@@H]4C(=O)N3Cc3ccccc3)ccc2F)cc1
AC50: 6.87 µM

COc1ccc(C(=O)/C=C/c2cc(OC)c(O)c(OC)c2)c(F)c1
AC50: 12.3 µM

CC(=O)c1c(C)oc2c1C(=O)c1ccccc1C2=O
AC50: 4.4 µM

Cc1ccnc2c1ccc1c(C)ccnc12
AC50: 0.937 µM

O=c1c(Cl)c(NCc2ccccc2)cnn1C12CC3CC(CC(C3)C1)C2
AC50: 3.19 µM

O=C(Nc1cccc(Cl)c1)c1nc[nH]c1C(=O)NCCCNC(=O)c1[nH]cnc1C(=O)Nc1cccc(Cl)c1
AC50: 5.33 µM

Cc1cccc(CN2CCN(C(c3ccccc3)c3ccc(Cl)cc3)CC2)c1 (configuration not stated)
AC50: 4.76 µM

CCOc1ccc(NC(=O)Nc2ccc(Cc3ccncc3)cc2)cc1
AC50: 7.84 µM

COc1ccc(OC)c(C(=O)CSc2nccc(-c3ccc(Br)cc3)n2)c1
AC50: 1.31 µM

O=C(CCC(=O)N1CCN(c2ccc(O)cc2)CC1)c1ccc(Br)cc1
AC50: 2.64 µM

COc1cccc(-c2sc3ccccc3c2-c2ccc(OCCN3CCCCC3)cc2)c1
AC50: 1.41 µM

CC(C)(C)c1cc(C(=O)NNc2cc(C(F)(F)F)ccc2Cl)n(Cc2ccccc2)n1
AC50: 4.18 µM

Cc1cc(C)c2nc(N3CCCC(C(=O)N4CCN(c5ncccn5)CC4)C3)sc2c1 (configuration not stated)
AC50: 11.2 µM

Cc1ccc(S[C@@H](CCN2CC[C@H](C(C)(C)C)CCC2=O)c2ccccc2)cc1
AC50: 3.57 µM

O=C(CN(c1cccc(C(F)(F)F)c1)S(=O)(=O)c1ccc(Cl)c([N+](=O)[O-])c1)NCc1ccc(F)cc1
AC50: 3.26 µM

CCOC(=O)C1=C(C)N2C(=C(C#N)[C@@H]1c1ccc(C(=O)OC)cc1)SC[C@@]2(O)C(C)(C)C
AC50: 4.79 µM

C=C(C)[C@@H]1CC[C@]2(C(=O)O)CC[C@]3(C)[C@H](CC[C@@H]4[C@@]5(C)CC[C@H](O)C(C)(C)[C@@H]5CC[C@]43C)[C@@H]12
AC50: 3.97 µM

CCc1ccc(-c2cc3c(=O)n(CC(=O)NCCN4CCCCC4C)nc(C)n3n2)cc1 (configuration not stated)
AC50: 5.23 µM

CNc1ccccc1C(C)(C)c1cc(-c2cc(C)cc(C)c2)no1
AC50: 18.4 µM

O=S(=O)(c1ccccc1)N(CC(O)Cn1c2ccccc2c2ccccc21)c1ccccc1 (configuration not stated)
AC50: 6.55 µM

O=C1NC(=O)N(CCc2ccc(F)cc2)C(=O)/C1=C/C=C/c1ccccc1
AC50: 3.91 µM

C[C@@H]1CC[C@]2(C(=O)O)CC[C@]3(C)C(=CCC4[C@]56CC[C@@](O)(OC5)C(C)(C)C6CC[C@]43C)C2[C@H]1C (some centres not stated)
AC50: 6.19 µM

N#CC1=C(N)N2C(=C(C#N)C1c1ccc(Br)cc1)Nc1ccccc12 (configuration not stated)
AC50: 2.99 µM

COc1ccc(N(CC(=O)Nc2cc(C)ccc2C)S(=O)(=O)c2c(C)noc2C)cc1
AC50: > 19.5 µM (inactive)

C=C(C)CNC(=S)NNC(=O)CCn1c2ccc(Cl)cc2c2cc(Cl)ccc21
AC50: 1.8 µM

C[C@@H]1CC=C[C@H]2[C@H]1C(=O)N(Cc1ccccc1)[C@H]2c1ccc2ccccc2c1
AC50: 6.67 µM

O=C1CC(c2ccc(F)cc2)CC2=C1C=Nc1ccccc1N2 (configuration not stated)
AC50: > 19.5 µM (inactive)

CC1=C(C(=O)OC2CCCCC2)C(c2ccc(C)o2)C2=C(CC(C)(C)CC2=O)N1 (configuration not stated)
AC50: 12.9 µM

Cc1cc(C(=O)CN2C(=O)C(=O)N(Cc3ccccc3)C2=O)c(C)n1Cc1ccccc1
AC50: 11.8 µM

N#Cc1c(NC(=O)Cn2c(=O)oc3ccccc32)oc(-c2ccccc2)c1-c1ccccc1
AC50: 4.24 µM

Cc1ccc(S(=O)(=O)N(C)c2ccc(OCc3cccc(C)c3)cc2)cc1
AC50: 1.99 µM

COc1cc2c(cc1OC)C(c1ccc(-c3ccc(Cl)c(Cl)c3)o1)=NCC2
AC50: 3.99 µM

CC1CCCN(CCCNC(=O)c2cc3c(Cl)nc4ccccc4c3s2)C1 (configuration not stated)
AC50: 8.14 µM

OC(CNCc1ccco1)Cn1c2ccc(Br)cc2c2cc(Br)ccc21 (configuration not stated)
AC50: 3.64 µM

CN(C)CCNC(=O)c1sc2nc(-c3ccccc3)cc(C(F)(F)F)c2c1N
AC50: 5.23 µM

CC(=O)NNc1cccc(Cl)n1
AC50: > 19.5 µM (inactive)

COc1cccc(/C=N/Nc2ncc(C(F)(F)F)cc2Cl)c1O
AC50: 0.665 µM

O=C(O)c1ccc(Cl)c(S(=O)(=O)N(Cc2ccccc2)c2ccc(F)cc2)c1
AC50: 14.5 µM

COc1cccc(N2CCN(Cc3nc4scc(-c5ccccc5)c4c(=O)[nH]3)CC2)c1
AC50: 2.59 µM

COCCNC(=O)c1c[nH]c2ccc(S(=O)(=O)N3CCc4ccccc43)cc2c1=O
AC50: 5.53 µM

O=[N+]([O-])c1ccc(CP(=O)(c2ccccc2)c2ccccc2)cc1
AC50: > 19.5 µM (inactive)

CCOC(=O)c1ccc(NC(=O)c2nc[nH]c2C(=O)NCCNC(=O)c2[nH]cnc2C(=O)Nc2ccc(C(=O)OCC)cc2)cc1
AC50: 0.624 µM
